Data from patent publication US9145351B2, “Azole derivatives, methods for producing the same, intermediate thereof, agro-horticultural agents” (KUREHA CORPORATION, priority 2009, dated 2015).
Read-outs that look alike come from different tables or passages of the source.

Experiments:
Tyromyces palustris = experiment: Plate medium assay, wood denaturing microorganism Oouzuratake (Experimental Example 5); format: cell-based; conditions: treatment at 50 mg/l, PDA plate medium; read-out: growth inhibition grade
Experimental: (§1) In this Experimental Example, the fungicidal effects of the inventive compounds on various phytopathogenic fungi for plants and hazardous microorganism for industrial materials were examined by the methods described below. Each inventive compound was dissolved in 2 ml of dimethyl sulfoxide. 0.6 ml of this solution was added to 60 nil of a PDA medium (potato dextrose agar medium) at about 60 degrees C., which was mixed thoroughly in a 100-ml conical flask, and poured into a dish, where it was solidified, thereby obtaining a plate medium containing the inventive compound at 50 mg/L and 5 mg/L. On the other hand, a subject microorganism previously cultured on a plate medium was cut out using a cork borer whose diameter was 4 mm, and inoculated to the test compound-containing plate medium described above. […] The growth degree of the microorganism on the test compound-containing plate medium thus observed was compared with the growth degree of the microorganism in the untreated group, and % mycelial growth inhibition was calculated by the following equation. R=100(dc-dt)/dc wherein R=% mycelial extension inhibition, dc=flora diameter in untreated plate, dt=flora diameter in treated plate. The results obtained as described above were evaluated as one of the 5 grades according to the following criteria.

Ustilago nuda = experiment: Plate medium fungicidal assay, barley loose smut U.n (Experimental Example 5); format: cell-based; conditions: Ustilago nuda
In short: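 Compounds in DMSO were mixed into molten PDA to give plates at 50 mg/L and 5 mg/L, then inoculated with a 4 mm mycelial plug. Colony diameter was compared with untreated plates as % inhibition = 100(dc−dt)/dc, scored on a 5-grade scale.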

Botritis cinerea = experiment: Plate medium fungicidal assay, gray mold B.c (Experimental Example 5); format: cell-based
In short: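 Compounds in DMSO were incorporated into PDA plate medium at 50 mg/L and 5 mg/L, then inoculated with 4 mm mycelial plugs of Botrytis cinerea. Colony diameter versus untreated plates gave % mycelial growth inhibition, R=100(dc−dt)/dc, scored on a 5-grade scale.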

Curvularia sp. = experiment: Plate medium assay, industrial material deteriorating microorganism, Curvularia (Experimental Example 5); format: cell-based; conditions: treatment at 50 mg/l, PDA plate medium, read-out: growth inhibition grade
Experimental: as §1

Fusarium oxysporum = experiment: Plate medium fungicidal assay, cucumber fusarium wilt F.c (Experimental Example 5); format: cell-based; conditions: Fusarium oxysporum
In short: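 Compound in DMSO mixed into PDA agar to give plates at 50 mg/L and 5 mg/L, then inoculated with 4 mm mycelial plug. Colony diameter compared with untreated plate as % mycelial growth inhibition, R=100(dc−dt)/dc, then scored on a 5-grade scale.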

Fusarium graminearum [1] = experiment: microbe, parasite or virus in culture; format: cell-based; conditions: Fusarium graminearum
Fusarium graminearum [2] = experiment: whole plant or invertebrate; format: in vivo; conditions: in Triticum aestivum, 168 h, read-out: Protective value
Alternaria alternata = experiment: Plate medium fungicidal assay, Alternaria blotch A.m (Experimental Example 5); format: cell-based; conditions: Alternaria alternata
In short: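 Compound dissolved in DMSO and mixed into PDA plates at 50 mg/L and 5 mg/L; 4 mm mycelial plug inoculated. Colony diameter compared with untreated plates, % mycelial growth inhibition = 100(dc−dt)/dc, converted to one of 5 grades.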

[3] = plate medium containing compound at 5 mg/L, read-out: Growth inhibition grade, U.n
[4] = plate medium containing compound at 50 mg/L, read-out: Growth inhibition grade, U.n
[5] = plate medium, 5 mg/L, read-out: growth inhibition grade U.n
[6] = plate medium, 50 mg/L, read-out: growth inhibition grade U.n
[7] = plate medium containing compound at 5 mg/L, read-out: Growth inhibition grade, B.c
[8] = plate medium containing compound at 50 mg/L, read-out: Growth inhibition grade, B.c
[9] = plate medium, 5 mg/L, read-out: growth inhibition grade B.c
[10] = plate medium, 50 mg/L, read-out: growth inhibition grade B.c
[11] = plate medium containing compound at 5 mg/L, read-out: Growth inhibition grade, F.c
[12] = plate medium containing compound at 50 mg/L, read-out: Growth inhibition grade, F.c
[13] = plate medium, 5 mg/L, read-out: growth inhibition grade F.c
[14] = plate medium, 50 mg/L, read-out: growth inhibition grade F.c
[15] = read-out: Growth inhibition grade, F.g
[16] = read-out: growth inhibition grade F.g
[17] = plate medium containing compound at 5 mg/L, read-out: Growth inhibition grade, A.m
[18] = plate medium containing compound at 50 mg/L, read-out: Growth inhibition grade, A.m
[19] = plate medium, 5 mg/L, read-out: growth inhibition grade A.m
[20] = plate medium, 50 mg/L, read-out: growth inhibition grade A.m

Compound	inhibition at 50 µg/mL (Tyromyces palustris) [%]	inhibition at 5 µg/mL (Ustilago nuda; [3]) [%]	inhibition at 50 µg/mL (Ustilago nuda; [4]) [%]	inhibition at 5 µg/mL (Ustilago nuda; [5]) [%]	inhibition at 50 µg/mL (Ustilago nuda; [6]) [%]	inhibition at 5 µg/mL (Botritis cinerea; [7]) [%]	inhibition at 50 µg/mL (Botritis cinerea; [8]) [%]	inhibition at 5 µg/mL (Botritis cinerea; [9]) [%]	inhibition at 50 µg/mL (Botritis cinerea; [10]) [%]	inhibition at 50 µg/mL (Curvularia sp.) [%]	inhibition at 5 µg/mL (Fusarium oxysporum; [11]) [%]	inhibition at 50 µg/mL (Fusarium oxysporum; [12]) [%]	inhibition at 5 µg/mL (Fusarium oxysporum; [13]) [%]	inhibition at 50 µg/mL (Fusarium oxysporum; [14]) [%]	inhibition at 5 µg/mL (Fusarium graminearum [1]; [16]) [%]	inhibition at 50 µg/mL (Fusarium graminearum [1]; [16]) [%]	pest or weed control at 100 µg/mL (Fusarium graminearum [2]) [%]	pest or weed control at 500 µg/mL (Fusarium graminearum [2]) [%]	inhibition at 5 µg/mL (Alternaria alternata; [19]) [%]	inhibition at 50 µg/mL (Alternaria alternata; [20]) [%]	further results
C[C@]1(CCl)CC[C@@H](Cc2ccc(Cl)cc2)[C@]1(O)Cn1cncn1 (racemic) [Compound I-1, (1RS,2SR,5SR)-5-(4-chlorobenzyl)-2-chloromethyl-2-methyl-1-(1H-1,2,4-triazol-1-ylmethyl)cyclopentanol]	60 to 80	> 80	> 80	> 80	> 80	> 80	> 80	> 80	> 80	60 to 80	> 80	> 80	> 80	> 80	> 80	> 80	≥ 80	≥ 90	> 80	> 80	inhibition at 5 µg/mL (Fusarium graminearum [1]; [15]): > 80%; inhibition at 50 µg/mL (Fusarium graminearum [1]; [15]): > 80%; inhibition at 5 µg/mL (Alternaria alternata; [17]): > 80%; inhibition at 50 µg/mL (Alternaria alternata; [18]): > 80%
C[C@]1(CCl)CC[C@@H](Cc2ccc(F)cc2)[C@]1(O)Cn1cncn1 (racemic) [Compound I-77, (1RS,2SR,5SR)-2-chloromethyl-5-(4-fluorobenzyl)-2-methyl-1-(1H-1,2,4-triazol-1-ylmethyl)cyclopentanol]	60 to 80	> 80	> 80	> 80	> 80	> 80	> 80	> 80	> 80	60 to 80	> 80	> 80	> 80	> 80	> 80	> 80	≥ 80	≥ 90	> 80	> 80	inhibition at 5 µg/mL (Fusarium graminearum [1]; [15]): > 80%; inhibition at 50 µg/mL (Fusarium graminearum [1]; [15]): > 80%; inhibition at 5 µg/mL (Alternaria alternata; [17]): > 80%; inhibition at 50 µg/mL (Alternaria alternata; [18]): > 80%
C[C@]1(CBr)CC[C@@H](Cc2ccccc2)[C@]1(O)Cn1cncn1 (racemic) [Compound I-602, (1RS,2SR,5SR)-2-bromomethyl-5-benzyl-2-methyl-1-(1H-1,2,4-triazol-1-ylmethyl)cyclopentanol]	60 to 80			60 to 80	> 80			60 to 80	> 80	60 to 80			> 80	> 80	> 80	> 80	≥ 80	≥ 90	60 to 80	> 80	
CC(Cl)=C[C@]1(C)CC[C@@H](Cc2ccc(Cl)cc2)[C@]1(O)Cn1cncn1 (racemic) [Compound I-115, (1RS,2SR,5SR)-5-(4-chlorobenzyl)-2-(2-chloropropenyl)-2-methyl-1-(1H-1,2,4-triazol-1-ylmethyl)cyclopentanol]	60 to 80			60 to 80	> 80			> 80	> 80	60 to 80			> 80	> 80	> 80	> 80	≥ 80	≥ 90	> 80	> 80	
